This assay relates to peripheral blood mononuclear cells (PBMCs) from healthy donors. Description: IFN production by R848-activated PBMCs, quantified with twINNE luciferase reporter cell line. The class given is cell-based, human. The conditions noted are these: Homo sapiens, PBMC; read-out: IC50 of anti-inflammatory activity (IFN production by activated PBMCs). The procedure, abridged: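 Healthy-donor PBMCs (4.10^6/mL, RPMI/10% FBS) were pre-treated with compound, then stimulated with R848 at 5 μg/mL for 24 h. Supernatants were put on twINNE cells, which carry luciferase under five ISREs, for 24 h, and Bright-Glo luminescence was read. IC50 values came from variable-slope dose-response fits.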
Background: A reporter such as luciferase makes a cellular process visible.

This is an account of results in patent publication US20240018125A1, “CYCLIC ISOTHIOUREA DERIVATIVES AS CXCR4 MODULATORS” (ERMIUM THERAPEUTICS, priority 2020, published 2024).

Where a name gives a salt, the structure may show the parent alone.

As for `c1ccc(N2CCC(SC3=NCc4ccccc4N3)C2)cc1` (centres unmarked) [Example 101, 2-((1-phenylpyrrolidin-3-yl)thio)-1,4-dihydroquinazoline hydrochloride], the IC50 lay in the range of 10 to 32 µM.

`FC(F)CN1CCC(SC2=NCc3ccccc3N2)C1` (centres unmarked) [Example 102, 2-((1-(2,2-difluoroethyl)pyrrolidin-3-yl)thio)-1,4-dihydroquinazoline hydrochloride]: the IC50 lay within 10 to 32 µM.

Consider `CN1CCC(SC2=NCc3cc(Cl)ccc3N2)C1` (centres unmarked) [Example 103, 6-chloro-2-((1-methylpyrrolidin-3-yl)thio)-1,4-dihydroquinazoline dihydrochloride], for which the 50% inhibitory concentration (IC50) is at most 10 µM.

Regarding `CCN1CCC(SC2=NCc3ccccc3N2)C1` (centres unmarked) [Example 104, 2-((1-ethylpyrrolidin-3-yl)thio)-1,4-dihydroquinazoline dihydrochloride], the IC50 is at most 10 µM.

In the case of `CN1CCC(SC2=NCCc3ccccc3N2)C1` (centres unmarked) [Example 105, 2-((1-methylpyrrolidin-3-yl)thio)-4,5-dihydro-1H-benzo[d][1,3]diazepine dihydrochloride], the IC50 was 10 to 32 µM.

Regarding `c1ccc(N2CCC(SC3=NCc4ccccc4CN3)C2)cc1` (centres unmarked) [Example 106, 3-((1-phenylpyrrolidin-3-yl)thio)-2,5-dihydro-1H-benzo[e][1,3]diazepine hydrochloride], the IC50 was 10 to 32 µM.

Consider `CN1CCCC1CSC1=NCc2ccccc2N1` (centres unmarked) [Example 108, 2-(((1-methylpyrrolidin-2-yl)methyl)thio)-1,4-dihydroquinazoline dihydrochloride], for which the IC50 lay in the range of 10 to 32 µM.

Turning to `C1=C(CSC2=NCc3ccccc3N2)N2C[C@H](Cc3c[nH]c4ccccc34)N=C2S1` [Example 109, (S)-6-((1H-indol-3-yl)methyl)-3-(((1,4-dihydroquinazolin-2-yl)thio)methyl)-5,6-dihydroimidazo[2,1-b]thiazole dihydrochloride], the IC50 was at most 10 µM.

Consider `IC1=C(CSC2=NCc3ccccc3N2)N2CC(Cc3ccccc3)N=C2S1` (centres unmarked) [Example 110, 6-benzyl-3-(((1,4-dihydroquinazolin-2-yl)thio)methyl)-2-iodo-5,6-dihydroimidazo[2,1-b]thiazole dihydrochloride], for which the IC50 was at most 10 µM.

Regarding `Clc1cccc(C[C@H]2CN3C(CSC4=NCc5ccccc5N4)=CSC3=N2)c1` [Example 111, (S)-6-(3-chlorobenzyl)-3-(((1,4-dihydroquinazolin-2-yl)thio)methyl)-5,6-dihydroimidazo[2,1-b]thiazole dihydrochloride], the IC50 was at most 10 µM.

With `Cc1cccc(CC2CN3C(CSC4=NCc5ccccc5N4)=CSC3=N2)c1` (centres unmarked) [Example 112, 3-(((1,4-dihydroquinazolin-2-yl)thio)methyl)-6-(3-methylbenzyl)-5,6-dihydroimidazo[2,1-b]thiazole dihydrochloride], the IC50 is at most 10 µM.

Consider `CC1N=C(SCC2=CSC3=NC(Cc4ccccc4)CN23)Nc2ccccc21` (centres unmarked) [Example 113, 6-benzyl-3-(((4-methyl-1,4-dihydroquinazolin-2-yl)thio)methyl)-5,6-dihydroimidazo[2,1-b]thiazole dihydrochloride], for which the IC50 is at most 10 µM.

For the compound `Clc1ccc2c(c1)CN=C(SCC1=CSC3=NC(Cc4ccccc4)CN13)N2` (centres unmarked) [Example 114, 6-benzyl-3-(((6-chloro-1,4-dihydroquinazolin-2-yl)thio)methyl)-5,6-dihydroimidazo[2,1-b]thiazole dihydrochloride], the IC50 was at most 10 µM.

On to `Clc1nccc2sc(CSC3=NCc4ccccc4N3)cc12` [Example 116, 4-chloro-2-(((1,4-dihydroquinazolin-2-yl)thio)methyl)thieno[3,2-c]pyridine dihydrochloride], for which the IC50 was at most 10 µM.

On to `Fc1cccc2c1CN=C(SCC1=CSC3=NC(Cc4ccccc4)CN13)N2` (centres unmarked) [Example 117, 6-benzyl-3-(((5-fluoro-1,4-dihydroquinazolin-2-yl)thio)methyl)-5,6-dihydroimidazo[2,1-b]thiazole dihydrochloride], for which the IC50 is at most 10 µM.

For `Clc1cccc2c1CN=C(SCC1=CSC3=NC(Cc4ccccc4)CN13)N2` (centres unmarked) [Example 118, 6-benzyl-3-(((5-chloro-1,4-dihydroquinazolin-2-yl)thio)methyl)-5,6-dihydroimidazo[2,1-b]thiazole dihydrochloride], the IC50 was at most 10 µM.

With `Brc1ccc2c(c1)NC(SCC1=CSC3=NC(Cc4ccccc4)CN13)=NC2` (centres unmarked) [Example 119, 6-benzyl-3-(((7-bromo-1,4-dihydroquinazolin-2-yl)thio)methyl)-5,6-dihydroimidazo[2,1-b]thiazole dihydrochloride], the IC50 is at most 10 µM.

As to `C1=C(CSC2=NCc3ccccc3N2)N2CC(c3ccccc3)N=C2S1` (centres unmarked) [Example 120, 3-(((1,4-dihydroquinazolin-2-yl)thio)methyl)-6-phenyl-5,6-dihydroimidazo[2,1-b]thiazole dihydrochloride], the 50% inhibitory concentration (IC50) was at most 10 µM.

Consider `Fc1cccc(CC2CN3C(CSC4=NCc5ccccc5N4)=CSC3=N2)c1` (centres unmarked) [Example 121, 3-(((1,4-dihydroquinazolin-2-yl)thio)methyl)-6-(3-fluorobenzyl)-5,6-dihydroimidazo[2,1-b]thiazole dihydrochloride], for which the IC50 was at most 10 µM.

In the case of `Cc1ccc(CC2CN3C(CSC4=NCc5ccccc5N4)=CSC3=N2)cc1` (centres unmarked) [Example 122, 3-(((1,4-dihydroquinazolin-2-yl)thio)methyl)-6-(4-methylbenzyl)-5,6-dihydroimidazo[2,1-b]thiazole dihydrochloride], the IC50 is at most 10 µM.

`Clc1ccccc1CC1CN2C(CSC3=NCc4ccccc4N3)=CSC2=N1` (centres unmarked) [Example 123, 6-(2-chlorobenzyl)-3-(((1,4-dihydroquinazolin-2-yl)thio)methyl)-5,6-dihydroimidazo[2,1-b]thiazole dihydrochloride]: the IC50 is at most 10 µM.

As to `COc1ccc(C[C@@H]2CN3C(CSC4=NCc5ccccc5N4)=CSC3=N2)cc1` [Example 124, (R)-3-(((1,4-dihydroquinazolin-2-yl)thio)methyl)-6-(4-methoxybenzyl)-5,6-dihydroimidazo[2,1-b]thiazole dihydrochloride], the IC50 is at most 10 µM.

Turning to `FC1(F)CCN(CCSC2=NCc3ccccc3N2)C1` [Example 125, 2-((2-(3,3-difluoropyrrolidin-1-yl)ethyl)thio)-1,4-dihydroquinazoline dihydrochloride], the IC50 lay in the range of 10 to 32 µM.

Take `C1=C(CSC2=NCc3ccccc3N2)N2CC(CCc3ccccc3)N=C2S1` (centres unmarked) [Example 126, 3-(((1,4-dihydroquinazolin-2-yl)thio)methyl)-6-phenethyl-5,6-dihydroimidazo[2,1-b]thiazole dihydrochloride]: the IC50 is at most 10 µM.

On to `COC1CCN(CCSC2=NCc3ccccc3N2)C1` (centres unmarked) [Example 127, 2-((2-(3-methoxypyrrolidin-1-yl)ethyl)thio)-1,4-dihydroquinazoline dihydrochloride], for which the IC50 is at most 10 µM.

For the compound `c1ccc(C2CCCN2CCSC2=NCc3ccccc3N2)cc1` (centres unmarked) [Example 128, 2-((2-(2-phenylpyrrolidin-1-yl)ethyl)thio)-1,4-dihydroquinazoline dihydrochloride], the IC50 was at most 10 µM.

For `CC(CSC1=NCc2ccccc2N1)N1CCCC1` (centres unmarked) [Example 129, 2-((2-(pyrrolidin-1-yl)propyl)thio)-1,4-dihydroquinazoline dihydrochloride], the IC50 is at most 10 µM.

Take `CC1CCCN1CCSC1=NCc2ccccc2N1` (centres unmarked) [Example 130, 2-((2-(2-methylpyrrolidin-1-yl)ethyl)thio)-1,4-dihydroquinazoline dihydrochloride]: the IC50 is at most 10 µM.

For `CC1(c2ccccc2)CN=C(SCCN2CCCC2)N1` (centres unmarked) [Example 131, 5-methyl-5-phenyl-2-((2-(pyrrolidin-1-yl)ethyl)thio)-4,5-dihydro-1H-imidazole dihydrochloride], the IC50 was in the range of 10 to 32 µM.

For the compound `FC1(F)CC12CCN(CCSC1=NCc3ccccc3N1)C2` (centres unmarked) [Example 132, 2-((2-(1,1-difluoro-5-azaspiro[2.4]heptan-5-yl)ethyl)thio)-3,4-dihydroquinazoline], the IC50 fell in the range of 10 to 32 µM.

Consider `c1ccc2c(c1)CN=C(SCCN1[C@@H]3CCC[C@H]1CC3)N2` [Example 133, 2-((2-((1R,5S)-8-azabicyclo[3.2.1]octan-8-yl)ethyl)thio)-3,4-dihydroquinazoline dihydrochloride], for which the IC50 was at most 10 µM.

`Ic1cc2c(c(I)c1I)NC(SCCN1CCCC1)=NC2` [Example 134, 6,7,8-triiodo-2-((2-(pyrrolidin-1-yl)ethyl)thio)-1,4-dihydroquinazoline dihydrochloride]: the IC50 was at most 10 µM.

As to `O=C1CCCN1CCSC1=NCc2ccccc2N1` [Example 135, 1-(2-((1,4-dihydroquinazolin-2-yl)thio)ethyl)pyrrolidin-2-one hydrochloride], the IC50 is over 32 µM.

Consider `c1ccc2c(c1)CN=C(SCCCCN1CCCC1)N2` [Example 137, 2-((4-(pyrrolidin-1-yl)butyl)thio)-1,4-dihydroquinazoline dihydrochloride], for which the IC50 was in the range of 10 to 32 µM.

Take `CC1CCN(CCSC2=NCc3ccccc3N2)C1` (centres unmarked) [Example 138, 2-((2-(3-methylpyrrolidin-1-yl)ethyl)thio)-1,4-dihydroquinazoline dihydrochloride]: the IC50 is at most 10 µM.

Consider `c1ccc(C2CCN(CCSC3=NCc4ccccc4N3)C2)cc1` (centres unmarked) [Example 140, 2-((2-(3-phenylpyrrolidin-1-yl)ethyl)thio)-1,4-dihydroquinazoline dihydrochloride], for which the IC50 was at most 10 µM.

With `c1ccc2c(c1)CN=C(SC1CCC[C@H]1N1CCCC1)N2` (stereo partly drawn) [Example 141, 2-(((2R)-2-(pyrrolidin-1-yl)cyclopentyl)thio)-1,4-dihydroquinazoline dihydrochloride], the IC50 is 10 to 32 µM.

Regarding `c1ccc2c(c1)CN=C(SCCN1CCC3(CCCC3)C1)N2` [Example 142, 2-((2-(2-azaspiro[4.4]nonan-2-yl)ethyl)thio)-1,4-dihydroquinazoline dihydrochloride], the IC50 was at most 10 µM.

As usually defined, the IC50 is the concentration that gives 50% inhibition.
